Earlier results, collected in patent US20070148240A1, “Oral formulation containing itraconazole and methods for manufacturing and using the same” (priority 2005, published 2007).

How the values were obtained:
[1] = not given; remark: listed apart in the source

Row | Compound | binding rate with plasma proteins (plasma proteins) [%] | solubility in acids (in acids such as hydrochloric acid, acetic acid, phosphoric acid and methylsulfonic acid) | solubility in ethanol (in ethanol) | solubility in methylene chloride (in methylene chloride) | solubility in water (in water) | time to reach peak concentration in plasma ([1]; after being taken by patients) [h] | concentration in blood relative to that in plasma ([1]; human, in vivo) | itraconazole in original form excreted in feces ([1]; human, in vivo) | itraconazole in original form secreted in urine ([1]; human, in vivo) [%] | plasma half life ([1]; human, in vivo) [h] | itraconazole metabolites secreted in urine ([1]; within a week after uptake of the drug) | antifungal activity in vitro (fungi)
1 | CCC(C)n1ncn(-c2ccc(N3CCN(c4ccc(OC[C@H]5CO[C@](Cn6cncn6)(c6ccc(Cl)cc6Cl)O5)cc4)CC3)cc2)c1=O (mixture of isomers) [itraconazole, (±)-cis-4-[4-[4-[4-[[2-(2,4-dichlorophenyl)-2-(1H-1,2,4-triazol-1-ylmethyl)-1,3-dioxolan-4-yl]methoxy]phenyl]-1-piperazinyl]phenyl]-2,4-dihydro-2-(1-methylpropyl)-3H-1,2,4-triazol-3-one] | 99.8 | easily soluble | low | easily soluble | less than 1 μg/ml | 3 to 4 | about 60% | 3-18% | ≤ 0.03 | 24 to 36 | About 35% | –
2 | hydroxy-itraconazole | – | – | – | – | – | – | – | – | – | – | – | has been demonstrated in vitro to have antifungal activity
